14 compounds from ChEMBL document CHEMBL1138295, “Multiple N-methylation by a designed approach enhances receptor selectivity” (J Med Chem, 2007) can be followed below.

As a reminder, the Papp is the rate of passage across a membrane or cell layer, normalised by area and donor concentration. Read a high Papp as ready permeation. By IC50 is commonly meant the point on the concentration scale where inhibition reaches its midpoint. Read a low IC50 as higher potency.

Square brackets hold non-standard residues; d marks the D form. Peptide text beside a SMILES is read from it.

For one series, the species on record is Homo sapiens. The experiment in a line: Selectivity for integrin alpha2bbeta3 receptor over integrin alphavbeta3 receptor.
The nature of series [1]: Permeability across human Caco-2 cell monolayer. Format: ADME, cell-based.
Series [2] deals with Integrin alpha-IIb/beta-3 (Homo sapiens, UniProt P05106+P08514). The experiment in a line: Binding affinity to integrin alpha-2b-beta-3 receptor by solid phase binding assay. In kind it is protein-complex assay.
Chain of Integrin alpha-IIb/beta-3 (P05106 27-788 limits assumed): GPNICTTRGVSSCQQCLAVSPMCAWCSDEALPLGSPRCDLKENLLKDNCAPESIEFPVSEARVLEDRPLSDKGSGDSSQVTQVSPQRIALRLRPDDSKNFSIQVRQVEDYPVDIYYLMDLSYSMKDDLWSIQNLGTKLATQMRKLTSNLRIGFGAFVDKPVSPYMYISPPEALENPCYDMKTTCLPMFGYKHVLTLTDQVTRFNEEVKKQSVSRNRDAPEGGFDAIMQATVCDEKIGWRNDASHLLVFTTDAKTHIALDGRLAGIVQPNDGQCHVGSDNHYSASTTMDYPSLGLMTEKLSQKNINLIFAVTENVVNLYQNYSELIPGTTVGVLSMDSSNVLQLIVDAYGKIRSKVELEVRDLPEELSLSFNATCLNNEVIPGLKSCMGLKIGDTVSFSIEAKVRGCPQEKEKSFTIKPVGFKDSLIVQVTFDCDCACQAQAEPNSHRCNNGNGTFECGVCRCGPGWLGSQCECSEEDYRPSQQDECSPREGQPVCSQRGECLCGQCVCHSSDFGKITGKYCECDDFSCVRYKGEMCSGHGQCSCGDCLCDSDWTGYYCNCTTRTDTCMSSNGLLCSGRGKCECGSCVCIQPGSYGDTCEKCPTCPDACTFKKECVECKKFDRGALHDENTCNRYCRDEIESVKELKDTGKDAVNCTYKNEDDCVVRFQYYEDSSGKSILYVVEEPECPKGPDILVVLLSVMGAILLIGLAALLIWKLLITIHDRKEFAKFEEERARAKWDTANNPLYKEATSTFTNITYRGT
Chain of Integrin alpha-IIb/beta-3 (P08514 32-887 limits assumed): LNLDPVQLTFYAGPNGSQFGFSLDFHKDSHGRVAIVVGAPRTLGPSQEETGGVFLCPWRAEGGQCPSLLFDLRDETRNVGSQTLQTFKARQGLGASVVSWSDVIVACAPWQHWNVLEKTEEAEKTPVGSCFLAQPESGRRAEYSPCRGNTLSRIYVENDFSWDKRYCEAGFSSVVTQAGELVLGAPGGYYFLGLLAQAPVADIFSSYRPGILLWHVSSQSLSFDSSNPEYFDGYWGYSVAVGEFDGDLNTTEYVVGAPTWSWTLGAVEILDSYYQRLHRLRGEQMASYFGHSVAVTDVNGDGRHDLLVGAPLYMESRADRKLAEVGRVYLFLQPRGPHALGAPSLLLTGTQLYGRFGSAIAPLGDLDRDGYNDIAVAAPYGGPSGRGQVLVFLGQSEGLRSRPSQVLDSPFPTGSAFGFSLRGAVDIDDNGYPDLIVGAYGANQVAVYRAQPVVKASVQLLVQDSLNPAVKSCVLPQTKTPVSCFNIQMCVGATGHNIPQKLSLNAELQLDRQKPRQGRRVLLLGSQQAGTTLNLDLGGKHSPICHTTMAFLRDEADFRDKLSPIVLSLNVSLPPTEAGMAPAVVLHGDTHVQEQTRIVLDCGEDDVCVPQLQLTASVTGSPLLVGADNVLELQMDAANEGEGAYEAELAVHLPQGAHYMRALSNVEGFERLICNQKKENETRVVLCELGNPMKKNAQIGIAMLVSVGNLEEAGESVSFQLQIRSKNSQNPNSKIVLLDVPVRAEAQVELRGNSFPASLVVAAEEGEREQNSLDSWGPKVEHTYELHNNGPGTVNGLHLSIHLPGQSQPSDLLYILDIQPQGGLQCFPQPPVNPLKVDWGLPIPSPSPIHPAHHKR
Chain of Integrin alpha-IIb/beta-3 (P08514 891-1039 limits assumed): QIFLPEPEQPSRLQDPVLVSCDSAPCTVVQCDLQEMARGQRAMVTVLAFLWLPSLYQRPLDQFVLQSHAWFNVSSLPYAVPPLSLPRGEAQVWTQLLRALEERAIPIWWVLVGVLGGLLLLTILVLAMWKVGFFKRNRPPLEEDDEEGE
The target in the next series is Integrin alpha-5/beta-1 (Homo sapiens, UniProt P05556+P08648). In words: Binding affinity to integrin alpha-5-beta-1 receptor by solid phase binding assay. In kind it is protein-complex assay.
Chain of Integrin alpha-5/beta-1 (P05556 21-798 limits assumed): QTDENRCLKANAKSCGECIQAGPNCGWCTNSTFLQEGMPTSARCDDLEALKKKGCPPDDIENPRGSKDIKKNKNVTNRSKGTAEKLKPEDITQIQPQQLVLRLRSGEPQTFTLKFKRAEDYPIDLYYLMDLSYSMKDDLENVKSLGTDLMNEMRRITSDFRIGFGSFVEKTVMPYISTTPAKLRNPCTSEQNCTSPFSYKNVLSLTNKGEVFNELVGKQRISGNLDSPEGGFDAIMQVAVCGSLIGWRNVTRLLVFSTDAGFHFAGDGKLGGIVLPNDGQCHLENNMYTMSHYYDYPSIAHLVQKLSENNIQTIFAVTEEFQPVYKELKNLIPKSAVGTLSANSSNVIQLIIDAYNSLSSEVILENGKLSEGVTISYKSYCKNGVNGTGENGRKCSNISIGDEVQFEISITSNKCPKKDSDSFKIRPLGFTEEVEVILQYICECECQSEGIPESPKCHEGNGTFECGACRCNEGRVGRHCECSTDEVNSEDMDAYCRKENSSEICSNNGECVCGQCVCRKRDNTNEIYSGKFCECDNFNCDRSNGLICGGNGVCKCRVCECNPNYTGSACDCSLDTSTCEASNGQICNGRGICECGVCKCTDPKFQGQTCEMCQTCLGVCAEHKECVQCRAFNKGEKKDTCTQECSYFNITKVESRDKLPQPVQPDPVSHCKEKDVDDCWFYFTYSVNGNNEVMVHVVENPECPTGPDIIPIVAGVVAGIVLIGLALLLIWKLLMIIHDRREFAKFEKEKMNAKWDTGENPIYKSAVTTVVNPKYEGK
Chain of Integrin alpha-5/beta-1 (P08648 42-894 limits assumed): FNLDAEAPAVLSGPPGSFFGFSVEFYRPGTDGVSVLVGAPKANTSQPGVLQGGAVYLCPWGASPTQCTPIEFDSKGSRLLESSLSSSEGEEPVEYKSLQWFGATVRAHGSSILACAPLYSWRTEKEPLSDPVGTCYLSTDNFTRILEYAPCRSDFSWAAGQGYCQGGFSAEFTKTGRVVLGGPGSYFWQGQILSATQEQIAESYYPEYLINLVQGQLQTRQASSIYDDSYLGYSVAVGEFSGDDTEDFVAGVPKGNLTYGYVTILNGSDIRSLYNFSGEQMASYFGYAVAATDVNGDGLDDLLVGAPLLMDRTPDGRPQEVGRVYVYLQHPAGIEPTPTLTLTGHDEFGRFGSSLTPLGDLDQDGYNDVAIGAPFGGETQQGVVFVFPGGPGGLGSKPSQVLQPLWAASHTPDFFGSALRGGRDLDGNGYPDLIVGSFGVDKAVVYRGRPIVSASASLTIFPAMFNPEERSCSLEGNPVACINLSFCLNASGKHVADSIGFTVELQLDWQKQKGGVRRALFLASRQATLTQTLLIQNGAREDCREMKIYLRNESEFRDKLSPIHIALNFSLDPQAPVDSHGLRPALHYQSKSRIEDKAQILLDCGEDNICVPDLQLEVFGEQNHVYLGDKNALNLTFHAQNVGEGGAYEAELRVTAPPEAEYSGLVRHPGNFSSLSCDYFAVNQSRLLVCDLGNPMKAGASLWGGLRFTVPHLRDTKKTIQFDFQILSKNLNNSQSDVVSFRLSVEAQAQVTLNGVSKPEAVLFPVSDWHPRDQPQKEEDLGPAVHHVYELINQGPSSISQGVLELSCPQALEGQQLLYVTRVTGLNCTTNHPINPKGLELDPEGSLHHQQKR
Chain of Integrin alpha-5/beta-1 (P08648 895-1049 limits assumed): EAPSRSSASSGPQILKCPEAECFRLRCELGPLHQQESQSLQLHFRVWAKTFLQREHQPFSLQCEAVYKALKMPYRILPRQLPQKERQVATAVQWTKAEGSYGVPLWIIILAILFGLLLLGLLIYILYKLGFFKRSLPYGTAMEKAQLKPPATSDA
The next series has as its target Integrin alpha-V/beta-3 (Homo sapiens, UniProt P05106+P06756). The experiment in a line: Binding affinity to integrin alpha-v-beta-3 receptor by solid phase binding assay. In kind it is protein-complex assay.

Chain of Integrin alpha-V/beta-3 (P05106 27-788 limits assumed): as the sequence (P05106 27-788 limits assumed) above
Chain of Integrin alpha-V/beta-3 (P06756 31-889 limits assumed): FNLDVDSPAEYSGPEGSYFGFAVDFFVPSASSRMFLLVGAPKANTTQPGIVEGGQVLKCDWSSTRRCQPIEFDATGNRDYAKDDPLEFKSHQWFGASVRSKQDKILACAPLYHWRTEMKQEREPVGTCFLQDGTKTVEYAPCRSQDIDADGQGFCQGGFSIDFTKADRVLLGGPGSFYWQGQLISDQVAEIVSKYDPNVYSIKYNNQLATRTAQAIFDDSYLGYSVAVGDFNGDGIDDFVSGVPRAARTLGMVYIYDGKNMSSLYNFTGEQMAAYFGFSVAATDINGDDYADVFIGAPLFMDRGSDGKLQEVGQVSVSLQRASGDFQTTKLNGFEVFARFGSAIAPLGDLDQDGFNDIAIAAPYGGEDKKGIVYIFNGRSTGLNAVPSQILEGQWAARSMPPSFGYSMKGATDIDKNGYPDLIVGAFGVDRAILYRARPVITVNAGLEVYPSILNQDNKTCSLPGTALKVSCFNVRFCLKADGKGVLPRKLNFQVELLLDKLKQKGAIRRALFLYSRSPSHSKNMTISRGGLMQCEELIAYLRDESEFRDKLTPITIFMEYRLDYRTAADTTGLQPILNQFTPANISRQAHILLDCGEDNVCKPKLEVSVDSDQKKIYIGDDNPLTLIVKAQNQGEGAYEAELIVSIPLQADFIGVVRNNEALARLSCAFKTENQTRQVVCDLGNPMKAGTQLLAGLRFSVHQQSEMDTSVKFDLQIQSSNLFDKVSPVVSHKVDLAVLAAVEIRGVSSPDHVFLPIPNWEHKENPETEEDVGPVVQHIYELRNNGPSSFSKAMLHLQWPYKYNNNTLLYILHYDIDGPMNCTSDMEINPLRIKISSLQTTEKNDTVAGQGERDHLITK
Chain of Integrin alpha-V/beta-3 (P06756 891-1048 limits assumed): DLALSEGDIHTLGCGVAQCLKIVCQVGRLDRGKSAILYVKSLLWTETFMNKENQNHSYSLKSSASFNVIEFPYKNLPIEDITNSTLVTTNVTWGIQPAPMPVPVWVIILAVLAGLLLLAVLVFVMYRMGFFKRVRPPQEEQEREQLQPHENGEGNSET

On to `CC(C)C[C@H]1C(=O)NCC(=O)N[C@@H](CCCNC(=N)N)C(=O)NCC(=O)N[C@@H](CC(=O)O)C(=O)N[C@H](Cc2ccccc2)C(=O)N1C`, for which the Ratio IC50 in the series filed under Homo sapiens was determined as 0.2.

In series [1], `OC[C@@H](O)[C@@H](O)[C@H](O)[C@H](O)CO` [MANNITOL] registered a Papp of 0.9 ×10⁻⁶ cm/s.

On to `CC(C)C[C@H]1C(=O)NCC(=O)N[C@@H](CCCNC(=N)N)C(=O)NCC(=O)N[C@@H](CC(=O)O)C(=O)N(C)[C@H](Cc2ccccc2)C(=O)N1C`, for which, in the series filed under Homo sapiens, the Ratio IC50 was determined as 2.

As to `CC(C)C[C@H]1C(=O)NCC(=O)N(C)[C@@H](CCCN=C(N)N)C(=O)NCC(=O)N[C@@H](CC(=O)O)C(=O)N(C)[C@H](Cc2ccccc2)C(=O)N1C`, the figures for the IC50 (in series [2]; on Integrin alpha-5/beta-1; at Integrin alpha-V/beta-3) were 30 nM, above 20000 nM and 12200 nM, respectively. In series [1], this compound had a Papp of 0.03 ×10⁻⁶ cm/s.

With `CC(C)C[C@@H]1NC(=O)[C@@H](Cc2ccccc2)N(C)C(=O)[C@H](CC(=O)O)NC(=O)CNC(=O)[C@H](CCCNC(=N)N)N(C)C(=O)CNC1=O`, the figures for the IC50 (in series [2]; on Integrin alpha-5/beta-1; on Integrin alpha-V/beta-3) were 165 nM, above 20000 nM and 2730 nM, respectively. In addition, in the series listed under Homo sapiens, the Ratio IC50 came to 16. The same compound displayed a Papp in series [1] of 0.03 ×10⁻⁶ cm/s.

As to `CC(C)C[C@@H]1NC(=O)[C@@H](Cc2ccccc2)N(C)C(=O)[C@H](CC(=O)O)NC(=O)CNC(=O)[C@H](CCCN=C(N)N)NC(=O)CNC1=O`, the IC50 in series [2] was determined as 2000 nM; on Integrin alpha-5/beta-1, 4300 nM; on Integrin alpha-V/beta-3, 490 nM. Further, the Papp in series [1] worked out at 0.03 ×10⁻⁶ cm/s.

`CC(C)C[C@@H]1NC(=O)[C@@H](Cc2ccccc2)NC(=O)[C@H](CC(=O)O)NC(=O)CNC(=O)[C@H](CCCN=C(N)N)N(C)C(=O)CNC1=O`: the IC50 is 12 nM in series [2], 1200 nM at Integrin alpha-5/beta-1 and 770 nM on Integrin alpha-V/beta-3. For the same compound, the Papp in series [1] was determined as 0.03 ×10⁻⁶ cm/s.

As for `CC(C)C[C@H]1C(=O)NCC(=O)N(C)[C@@H](CCCNC(=N)N)C(=O)NCC(=O)N[C@@H](CC(=O)O)C(=O)N(C)[C@H](Cc2ccccc2)C(=O)N1C`, the Ratio IC50 in the series listed under Homo sapiens was determined as 406.

Take `CC(C)C[C@H]1C(=O)NCC(=O)N[C@@H](CCCN=C(N)N)C(=O)NCC(=O)N[C@@H](CC(=O)O)C(=O)N(C)[C@H](Cc2ccccc2)C(=O)N1C`: the values for the IC50 (in series [2]; at Integrin alpha-5/beta-1; at Integrin alpha-V/beta-3) were 620 nM, above 20000 nM and 1200 nM, respectively. Further, the Papp in series [1] amounted to 0.03 ×10⁻⁶ cm/s.

Consider `CC(C)C[C@@H]1NC(=O)[C@@H](Cc2ccccc2)N(C)C(=O)[C@H](CC(=O)O)NC(=O)CNC(=O)[C@H](CCCNC(=N)N)NC(=O)CNC1=O`, for which, in the series listed under Homo sapiens, the Ratio IC50 was determined as 0.2.

Turning to `CC(C)C[C@@H]1NC(=O)[C@@H](Cc2ccccc2)NC(=O)[C@H](CC(=O)O)NC(=O)CNC(=O)[C@H](CCCNC(=N)N)NC(=O)CNC1=O` (cyclo(GRGD[dF]L)), the IC50 in series [2] turned out to be 195 nM; at Integrin alpha-5/beta-1 it was 740 nM; on Integrin alpha-V/beta-3, 100 nM. Further, the Ratio IC50 in the series filed under Homo sapiens came out at 0.5. The same compound came in with a Papp in series [1] of 0.03 ×10⁻⁶ cm/s.

With `CC(C)C[C@@H]1NC(=O)[C@@H](Cc2ccccc2)NC(=O)[C@H](CC(=O)O)NC(=O)CNC(=O)[C@H](CCCNC(=N)N)N(C)C(=O)CNC1=O`, the Ratio IC50 in the series listed under Homo sapiens amounted to 64.

As to `CC(C)C[C@H]1C(=O)NCC(=O)N[C@@H](CCCN=C(N)N)C(=O)NCC(=O)N[C@@H](CC(=O)O)C(=O)N[C@H](Cc2ccccc2)C(=O)N1C`, the IC50 stood at 560 nM in series [2], 3900 nM on Integrin alpha-5/beta-1 and 103 nM at Integrin alpha-V/beta-3. Besides, the Papp in series [1] turned out to be 0.03 ×10⁻⁶ cm/s.

For the compound `CC(C)C[C@H]1C(=O)NCC(=O)N(C)[C@@H](CCCNC(=N)N)C(=O)NCC(=O)N[C@@H](CC(=O)O)C(=O)N[C@H](Cc2ccccc2)C(=O)N1C`, the values for the IC50 (in series [2]; on Integrin alpha-5/beta-1; on Integrin alpha-V/beta-3) were 15 nM, 20000 nM and 1300 nM, respectively. Besides, the Ratio IC50 in the series listed under Homo sapiens came out at 86. Besides, the Papp in series [1] came out at 0.03 ×10⁻⁶ cm/s.
